Results on one compound are retold here after PMC11874377, “Fungal-derived methyldeoxaphomins target Plasmodium falciparum segregation through the inhibition of PfActin1” (Proceedings of the National Academy of Sciences of the …, 2025).

Usually EC50 stands for the midpoint of the concentration-response curve.

Assay [1] has as its system P. falciparum. Nature of the assay: Parasite reduction ratio (PRR). It counts as cell-based, Plasmodium falciparum. The settings on record: 10 × EC50. How it is done:
After a 24 h lag phase, only 10^0.64 parasites are killed within the first replication cycle (48 h). […] We also examined the in vitro killing rate in Dd2 through flow cytometric analysis. […]
Parasite reduction ratio adapted from protocol by Sanz et al (Sanz et al., 2012). In brief, early ring stage mono-infected RBCs at 106 were incubated with a 10 x EC50 concentration of NPDG-F, DHA, or atovaquone for either 24, 48, 72, 96, or 120 h. Following incubations, cells were washed and serially diluted. After 3 weeks, growth was determined via SYBR […]
Green I staining. […]

Assay [2] relates to P. berghei liver stage in HepG2 cells. Description: High content imaging liver stage screening. In kind it is cell-based, Plasmodium berghei. How it is done: Given these findings, we sought to observe the effects of NPDG-F on hepatic merozoites to see whether they were similarly impacted. To this end, HepG2 cells were infected with P. berghei sporozoites expressing luciferase and seeded onto a microtiter plate with NPDG-F at 2 HPI. At 72 HPI, a high content imaging (HCI) readout of treated parasites was performed to observe the impact on parasite maturation and merozoite formation via the expression of liver stage maturation markers MSP1 and AMA1. […] Infected monolayers treated with 1.1 µM of methyldeoxaphomin NPDG-F from 2-55 HPI were immunolabeled to examine the localization of MSP1 and AMA1 relative to parasite DNA during the period of merozoite formation (Fig. 4G). […]
Parasite reduction ratio adapted from protocol by Sanz et al (Sanz et al., 2012). […] After 3 weeks, growth was determined via SYBR Green I staining. The PRR was calculated and graphed using Graphpad Prism version […]
To examine the impact of methyldeoxaphomin NDPG F on the Plasmodium liver stage, HepG2 cells were infected with a luciferase-expressing strain of P. berghei. […] At 48 HPI, luciferase expression was measured as described(Van Voorhis et al., 2016) and parasite growth was quantified. After 72 HPI, High content imaging was performed to observe the relative expression of MSP1 and AMA1, the size and quantity of exoerythrocytic form parasites, and the HepG2 area occupied. […]

The subject of assay [3] is Dd2-Pol δ parent line. Nature of the assay: Resistant parasite phenotyping and cross resistance, SYBR green I EC50 assay, parent line. It counts as cell-based, Plasmodium falciparum. Particulars: Plasmodium falciparum; strain Dd2-Pol δ -parent; read-out: EC50 (mean ± SEM). As to the method:
Cloning by limiting dilution was then performed to isolate individual lines from the bulk population. Due to the multiple mutations identified in the first biological replicate, we isolated four clones from this bulk culture as compared to two clones each from the second and third replicates. These clones were phenotyped via a SYBR green I-based dose–response assay (Table 2 and Fig. 2B). […] The DNA of these clones was then extracted and subjected to whole-genome sequencing.
Resistant parasite phenotyping and cross resistance measurement
The EC50 assay was performed at 1% parasitemia, 1% hematocrit with SYBR green I in 96-well plates. The highest final concentration of the methyldeoxaphomin NPDG-F was set at 100 μM. Briefly, the compound was subjected to a 3-fold serial dilution with ten dilution points. Three technical replicates were set up at each dilution point. The Dd2-Pol δ parent line and the resistant parasites at 2% hematocrit and 1% parasitemia were added to the drug media at 1:1 ratio. The plate was incubated at 37°C for 72 hours in a chamber filled with a hypoxic gas mixture (3% oxygen, 5% carbon dioxide, and 92% nitrogen). After incubation, the cells were lysis with lysis buffer (20 mM Tris-HCL, 0.08% saponin, 5 mM EDTA, and 0.8% Triton X-100) containing SYBR green I (10,000X, Thermo Fisher, cat # S7563) overnight. Fluorescence was measured at 485nm excitation and 530nm emission using a PHERAstar FSX plate reader (BMG Labtech, Germany). Dose response curves were graphed with Prism 9 Version 9.5.1.
3D structural analysis of the mutations and docking studies
The crystal structure of PfActin1 with accession number 6TU4 (resolution 2.60 Ang) (Vahokoski et al., 2022) was obtained from the Protein Data Bank (PDB). This structure of PfActin1 contains ligands Jasplakinolide and ADP with a coordinating magnesium ion.
Only chain A was used for the docking experiment. […] Schrodinger maestro software (Schrödinger, LLC) was used to build NPDG-F with the proper stereochemistry using the x-ray structure determined for analog NPDG-A (vide supra). […]

With `C=C1C(C)C2C(Cc3ccccc3)NC(=O)C23C(=O)C=CC(O)C(O)C(C)CC(C)CC=CC3C1O` (stereo not shown) [Methyldeoxaphomin NPDG-F], in assay [1], the “99.9% PCT (parasite clearance time)” value is given as “more than 96 h”, the killing profile result is listed as “gradual killing profile”, the lag phase is given as 24 h and the “log(PRR)” value was determined as 0.64. Besides, the “effect on liver-stage parasite development” value in assay [2] (1.1 µM from 2-55 HPI) is given as “developmental failure during schizogony”. Moreover, the “MSP1 positive exoerythrocytic form (EEF) parasites remaining in the monolayer” value in assay [2] (72 HPI, added at 2 HPI) is recorded as “sharp increase”. Besides, the EC50 in assay [3] stood at 3.43 µM.
